Paper PMC3726612, “Amiodarone Inhibits Apamin-Sensitive Potassium Currents” (PLoS ONE, 2013)

Columns and labels:
Type in all cases: cell-based
[1] = biological target: T1, human small conductance Ca^2+-activated K^+ channel, subfamily N, member 2 (SK2) (Homo sapiens, UniProt Q9H2S1); experiment: whole-cell patch clamp, HEK-293 cells expressing SK2; % inhibition at […]; settings: HEK293; read-out: % inhibition at 500 nM
T1 construct: gene KCNN2; transcript variant 1 (NM_021614.2)

[2] = biological target: T1, human small conductance Ca^2+-activated K^+ channel, subfamily N, member 2 (SK2); experiment: as above; settings: HEK293
[3] = biological target: T1, human small conductance Ca^2+-activated K^+ channel, subfamily N, member 2 (SK2); experiment: whole-cell patch clamp, HEK-293 cells transiently expressing SK2; % inhibition at […]; settings: HEK293
[4] = biological target: T1, human small conductance Ca^2+-activated K^+ channel, subfamily N, member 2 (SK2); experiment: whole-cell patch clamp, HEK-293 cells transiently expressing SK2

T1 sequence (Q9H2S1 whole entry): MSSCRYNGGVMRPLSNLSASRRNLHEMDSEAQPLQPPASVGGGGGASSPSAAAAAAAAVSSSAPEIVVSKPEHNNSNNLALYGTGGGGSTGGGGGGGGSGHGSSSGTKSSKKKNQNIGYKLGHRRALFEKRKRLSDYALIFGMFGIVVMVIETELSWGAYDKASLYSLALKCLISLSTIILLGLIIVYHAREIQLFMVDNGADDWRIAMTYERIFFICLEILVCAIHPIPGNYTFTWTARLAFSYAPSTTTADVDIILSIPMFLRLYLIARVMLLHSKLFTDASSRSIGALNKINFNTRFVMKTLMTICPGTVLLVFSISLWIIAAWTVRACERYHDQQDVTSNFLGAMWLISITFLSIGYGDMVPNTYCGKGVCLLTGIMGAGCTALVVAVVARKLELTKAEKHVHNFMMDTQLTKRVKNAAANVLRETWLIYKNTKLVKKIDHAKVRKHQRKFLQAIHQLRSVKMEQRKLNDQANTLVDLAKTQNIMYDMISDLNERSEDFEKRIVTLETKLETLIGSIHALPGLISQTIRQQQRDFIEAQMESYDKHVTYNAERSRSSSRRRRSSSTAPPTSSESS

Cc1cccc(CCN2CCC(C(=O)c3ccc(NS(C)(=O)=O)cc3)CC2)n1 [E-4031]
inhibition at 0.5 µM [1]: 37.6 ± 14.9%

CCS(=O)(=O)N(C)[C@H]1c2cc(C#N)ccc2OC(C)(C)[C@@H]1O (racemic) [chromanol 293B]
inhibition at 100 µM [2]: 38.2 ± 15%

CCCCc1oc2ccccc2c1C(=O)c1cc(I)c(OCCNCC)c(I)c1 [DEA, desethylamiodarone]
inhibition at 20 µM [3]: 79%

CCCCc1oc2ccccc2c1C(=O)c1cc(I)c(OCCN(CC)CC)c(I)c1 [amiodarone]
IC50 [4]: 2670 ± 250 nM
